These results are taken from US8399435B2, “Compounds for the treatment of proliferative disorders” (Synta Pharmaceuticals Corp., priority 2005, dated 2013).

Assay [1] concerns HL-60 (T-cell leukemia). Briefly: In vitro cytotoxicity, MTS assay, HL-60 cells. It is filed as cell-based. As to conditions: Homo sapiens, HL60, Leukemia, 72 hours incubation, concentration to inhibit 50% tumor cell growth. The method, then:
(§1) The in vitro cytotoxicity of the compounds of the invention was determined in the following human cell lines: HL-60 ([…]), MES-SA and MES-SA/DX5 (uterine sarcoma). MES-SA is a model of uterine sarcoma, and the cell are sensitive to a number of chemotherapeutic agents including doxorubicin, dactinomycin, mitomycin C, taxol and bleomycin, but resistant to vinblastine and cisplatin. MES-SA/Dx5 was established in the presence of increasing concentrations of doxorubicin. […] All cells were purchased from ATCC.
(§2) The cell lines were maintained in RPMI1640 (GIBCO) supplemented with 10% FCS, 100 units/mL penicillin, 100 ug/ml streptomycin, and 2 mM L-glutamine. Cells were split every third day and diluted to a concentration of 2×10^5 cells/mL one day before the experiment was performed. All experiments were performed on exponentially growing cell cultures. Cell densities were 2.5×10^4 cells/mL in all experiments.
(§3) Compounds of the invention were prepared by dissolving the compound at a concentration of 10 mM in 100% DMSO. Final concentrations 10, 1, 0.1, 0.01 and 0.001 μM were obtained by diluting the stock solution directly into the tissue culture medium. Cells were incubated with varying concentrations of compound 3 for 72 hours and the IC50 was determined by MTS (i.e. […]) assay. IC50 in this context stands for the concentration of compound required to inhibit 50% tumor cell growth.
Background: Tetrazolium assays rely on reduction of a dye to a coloured formazan, in cell work by metabolically active cells.

In assay [2] the test system is MES-SA (uterine sarcoma). Briefly: In vitro cytotoxicity, MTS assay, MES-SA cells. As to conditions: Homo sapiens, Uterine Carcinoma, 72 hours incubation. It is filed as cell-based. As to the method:
as §1, §2, §3

Assay [3] relates to MES-SA/DX5 (uterine sarcoma, multidrug resistant). Briefly: In vitro cytotoxicity, MTS assay, multidrug resistant MES-SA/DX5 cells. It is filed as cell-based, human. To be noted: for IC50: Homo sapiens, MES/DX5, MDR-1, 72 hours incubation; for Activity against multidrug resistant cell line MES/SA-DX compared with Taxol: comparison with Taxol. As to the method: as §1, §2, §3

The structures appear in SMILES notation.

For orientation: IC50 means the concentration needed to halve the response being measured. Low readings indicate greater potency, high ones weaker potency.

As to `COc1ccc(-c2cnsc2-c2cc(OC)c(OC)c(OC)c2)cc1` [Compound 3, 4-(4-methoxy-phenyl)-5-(3,4,5-trimethoxy-phenyl)-isothiazole], the figures for the concentration for half-maximal inhibition (IC50) in assay [1], in assay [2] and in assay [3] were 474 nM, 100 nM and 80 nM, respectively. In addition, in assay [3], the “Activity against multidrug resistant cell line MES/SA-DX compared with Taxol” value is listed as “much greater activity than Taxol”.
For `COc1ccc(-c2cnsc2-c2cc(OC)c(OC)c(OC)c2)cc1N` [Compound 64, 2-Methoxy-5-[5-(3,4,5-trimethoxy-phenyl)-isothiazol-4-yl]-phenylamine] the same measures were 25 nM, 42 nM, 33 nM and “much greater activity than Taxol”.
In the case of `CC(=O)O[C@H]1C(=O)[C@@]2(C)[C@H]([C@H](OC(=O)c3ccccc3)[C@]3(O)C[C@H](OC(=O)[C@H](O)[C@@H](NC(=O)c4ccccc4)c4ccccc4)C(C)=C1C3(C)C)[C@]1(OC(C)=O)CO[C@@H]1C[C@@H]2O` [Taxol, reference compound], the IC50 in assay [1] was 5 nM; in assay [2], 5 nM; in assay [3] it was 10000 nM.
